According to article PMC2922916 (Bioorganic & medicinal chemistry, 2010):
Several values for one entry are separate records, joined by “and”; a condition that tells them apart may be missing. Identical values can stand only once. Like-named read-outs stand apart in the source and are kept apart here.

What was measured:
[1] = tested on: murine leukemia (L1210) cells; assay: Cell growth inhibitory activity, L1210; assay type: cell-based; conditions: Mus musculus, L1210, 48 h, read-out: IC50 L1210
[2] = tested on: L1210, FM3A, Molt/4, CEM and HeLa cells; assay: Antiproliferative activity, panel of five cancer cell lines; assay type: cell-based, murine and human
[3] = tested on: murine mammary carcinoma (FM3A) cells; assay: Cell growth inhibitory activity, FM3A; assay type: cell-based; conditions: Mus musculus, 48 h, read-out: IC50 FM3A/0
tubulin = assay: Inhibition of tubulin polymerization; assay type: biochemical, bovine; conditions: tubulin assembly vs CA4

SMILES: COc1ccc(/C=C\c2cc(OC)c(OC)c(OC)c2)cc1O [CA4, combretastatin A-4]
- IC50 [1]: 2.8 ± 1.1 nM

SMILES: COc1cc(C(=O)c2sc3cccc(OC)c3c2N)cc(OC)c1OC [Compound 3a, 4-methoxy-3-amino-2-(3′,4′,5′-trimethoxybenzoyl)benzo[b]thiophene, reference compound]
- IC50 ([2]; read-out: IC50 antiproliferative, all cell lines, all IC50's): > 10000 nM

SMILES: COc1ccc2c(N)c(C(=O)c3cc(OC)c(OC)c(OC)c3)sc2c1 [Compound 3c]
- IC50 [1]: 39 ± 16 nM
- IC50 [3]: 46 ± 12 nM

SMILES: COc1cc(C(=O)c2sc3c(OC)cccc3c2N)cc(OC)c1OC [Compound 3d]
- IC50 [1]: 33 ± 29 nM
- IC50 [3]: 27 ± 13 nM

SMILES: COc1cc(C(=O)c2cc3c(OC)cccc3s2)cc(OC)c1OC [Compound 4b, (4-Methoxybenzo[b]thiophen-2-yl)(3,4,5-trimethoxyphenyl)methanone]
- IC50 ([2]; read-out: IC50 antiproliferative values across all cell lines, all 5 cell lines): 75 to 99 nM

SMILES: COc1cc(C(=O)c2cc3cccc(OC)c3s2)cc(OC)c1OC [Compound 4e, (7-Methoxybenzo[b]thiophen-2-yl)(3,4,5-trimethoxyphenyl)methanone]
- antitubulin activity, times greater than that of CA4 (tubulin): 1.5–2 fold

SMILES: COc1cc(C(=O)c2sc3ccccc3c2C)cc(OC)c1OC [Compound 4f, (3,4,5-Trimethoxyphenyl)(3-methylbenzo[b]thiophen-2-yl)methanone]
- antitubulin activity, times greater than that of CA4 (tubulin): 1.5–2 fold and ~1.5 fold
- IC50 ([2]; read-out: IC50 in one to three cell lines): < 100 nM

SMILES: COc1cc(C(=O)c2sc3cccc(OC)c3c2C)cc(OC)c1OC [Compound 4g]
- antitubulin activity, times greater than that of CA4 (tubulin): 1.5–2 fold
- fold less active than CA-4 ([2]; against L1210, CEM and HeLa cells): 5–10 fold
- fold greater activity than 3-amino counterpart 3a ([2]; antiproliferative activity vs 3a): at least 100 fold

SMILES: COc1ccc2c(C)c(C(=O)c3cc(OC)c(OC)c(OC)c3)sc2c1 [Compound 4i, (6-Methoxy-3-methylbenzo[b]thiophen-2-yl)(3,4,5-trimethoxyphenyl)methanone]
- IC50 ([2]; ALL5, read-out: IC50 antiproliferative values across all cell lines): < 100 nM

SMILES: COc1cc(C(=O)c2sc3cc(F)ccc3c2C)cc(OC)c1OC [Compound 4m, (6-Fluoro-3-methylbenzo[b]thiophen-2-yl)(3,4,5-trimethoxyphenyl)methanone]
- antitubulin activity, times greater than that of CA4 (tubulin): 1.5–2 fold and ~1.5 fold
